Patent US20240299435A1, “COMPOSITIONS CONTAINING ADENOSINE TRIPHOSPHATE (ATP) AND METHODS OF USE FOR COGNITIVE FUNCTION” (priority 2021, published 2024)

How the values were obtained:
[1] = 225 mg per day enteric-coated ATP for 15 days; cited from earlier work
[2] = Dynavision D2 Mode A (proactive) visuomotor reaction time task before and after a 3-minute all-out cycling test (3 MT); format: in vivo, human; conditions: at 60 P; p=0.028
Procedure: (§1) This study followed a double-blind, randomized cross-over design. Participants were randomized to either PeakATP or Placebo and consumed their assigned supplement for a period of 14-days. Following supplementation, participants reported back to the lab within 24-hours for the first of two experimental trials, which occurred in a randomized, counterbalanced cross-over fashion. During experimental trial 1 (T1), participants ingested an acute dose of their assigned supplement 30 minutes before completing pre-testing assessments (Dynavision D2) followed by a 3-minute all-out high-intensity effort (3 MT) on a cycle ergometer. […]
(§2) A convenience sample of healthy, recreationally active individuals were recruited. […] To be included in this study, participants were required to be healthy and ready for activity as determined by physical activity readiness questionnaire (Par-Q+) and Medical History questionnaire (MHQ), be classified as recreationally active (≥150 minutes exercise per week) and not be taking and be willing to abstain from creatine or beta-alanine supplementation or be willing to complete a 4-week wash-out period prior to enrolling if taking creatine or beta-alanine and be willing to abstain from supplementing with either for the duration of the study. […]
(§3) Reaction time was assessed using the Dynavision D2 visuomotor training device. […]

[3] = Dynavision D2 Mode B (reactive) visuomotor reaction time task with cognitive stressor before and after a 3-minute all-out cycling test (3 MT); format: in vivo, human
Procedure: as §1, §2, §3

[4] = 400 mg per day ATP for 15 days; cited from earlier work

Nc1ncnc2c1ncn2[C@@H]1O[C@H](COP(=O)(O)OP(=O)(O)OP(=O)(O)O)[C@@H](O)[C@H]1O [ATP, adenosine-5′-triphosphate]
total bench press lifting volume and within-group set-one repetitions to failure [1]: increased | Mode A number of hits compared to placebo [2]: significantly greater | Mode B avgRT compared to PRE ([3]; at IP (p=0.015) and 60 P (p=0.001)): significantly faster | Mode B avgRT compared to placebo ([3]; at any time point, p's>0.05): not significantly different | minimum peak torque in set two of a knee extensor bout [4]: increased
